Laboratory results from patent US20220265603A1, “HEPATIC FIBROSIS-INHIBITING AGENT AND BROWN FAT CELL-ACTIVATING AGENT CONTAINING TAXIFOLIN” (NATIONAL HOSPITAL ORGANIZATION, priority 2019, published 2022).

Key:
[1] = Food ingestion experiment: body weight and food intake; assay type: in vivo, C57BL/6J mice
Procedure: C57BL/6J mice were used as experimental animals. They were purchased at the age of 7 weeks from CLEA Japan, Inc. and randomly divided into four groups at the age of 8 weeks after 1 week of acclimation as shown in Table 1 below. They were allowed to eat and drink freely, and their food intake and body weight were measured once a week. Fasting blood glucose was measured on the first day of the feeding experiment and once every 4 weeks thereafter (at 4, 8, and 12 weeks after the start of the feeding). At the end of 12 weeks, an intraperitoneal glucose tolerance test (IPGTT) was performed to analyze glucose tolerance. Rectal temperature was also measured at 8 and 12 weeks follow-up (Table 2).

[2] = tested on: liver fatty acid synthesis-related genes; test: Liver fatty acid synthesis-related gene expression, RT PCR; assay type: in vivo, C57BL/6J mice; conditions: high-fat diet+3% taxifolin vs high-fat diet only, 12 weeks
Text: Srebp1c, Lxra, FAS, Scd1, PPARα, Cpt1a gene expression: Real-time Quantitative RT PCR

[3] = tested on: acute pancreatitis model mouse; conditions: non-patent document 10; cited from earlier work
[4] = tested on: F4/80, TNF-α, IL-1β gene expression; test: Liver tissue inflammation index gene expression, RT PCR; assay type: in vivo, C57BL/6J mice; conditions: high-fat diet+3% taxifolin vs high-fat diet only, 12 weeks
Text: F4/80, TNF-α, IL-1β gene expression: Real-time Quantitative RT PCR

AMPK = test: Liver AMPK phosphorylation, Western blotting; assay type: in vivo, C57BL/6J mice; conditions: 12 weeks
Text: (§1) AMPK phosphorylation, ACC phosphorylation: Western blotting

[5] = Fasting blood glucose and intraperitoneal glucose tolerance test (IPGTT); assay type: in vivo, C57BL/6J mice; conditions: 12 weeks
Procedure: (§2) They were allowed to eat and drink freely, and their food intake and body weight were measured once a week. Fasting blood glucose was measured on the first day of the feeding experiment and once every 4 weeks thereafter (at 4, 8, and 12 weeks after the start of the feeding). At the end of 12 weeks, an intraperitoneal glucose tolerance test (IPGTT) was performed to analyze glucose tolerance. Rectal temperature was also measured at 8 and 12 weeks follow-up (Table 2). glucose tolerance: The area under the blood glucose curve (AUC) was calculated from the blood glucose fluctuation curve from fasting blood glucose level to 120 min after ingestion using the trapezoidal formula.

[6] = Blood concentration and biochemical test; assay type: in vivo, C57BL/6J mice; conditions: high-fat diet+3% taxifolin vs high-fat diet only, 12 weeks
Text: insulin concentration: Ultra-sensitive mouse insulin ELISA kit (Morinaga Institute of Biological Science, Inc.) leptin concentration: mouse/rat leptin ELISA kit (Morinaga Institute of Biological Science, Inc.) adiponectin concentration: mouse/rat adiponectin ELISA kit (Otsuka Pharmaceutical Co., Ltd.) Triglyceride: Lab Assay Kit (Wako) TNF-α, IL-1β concentration: ELISA kit (Proteintech) ALT, AST levels: Assay Kit (Funakoshi Co., Ltd.)

ACC = test: Liver ACC phosphorylation, Western blotting; assay type: in vivo, C57BL/6J mice; conditions: 12 weeks
Text: as §1

[7] = tested on: αSMA, PAI1, TGF-β1, Type1 collagen gene expression; test: Liver fibrosis index gene expression, RT PCR; assay type: in vivo, C57BL/6J mice; conditions: high-fat diet+3% taxifolin vs high-fat diet only, 12 weeks
Text: αSMA, PAI1, TGF-β, 1-type Collagen gene expression: Real-time Quantitative RT PCR

[8] = tested on: F4/80, αSMA, TGF-β1 protein; test: Liver fibrosis index protein amount, Western blotting; assay type: in vivo, C57BL/6J mice; conditions: 12 weeks
Text: F4/80, αSMA, TGF-β1 protein amount: Western blotting

[9] = tested on: type 1 diabetes model rat; conditions: non-patent document 11; cited from earlier work
Tissue weight at autopsy = assay type: in vivo, C57BL/6J mice; conditions: high-fat diet+3% taxifolin vs high-fat diet only, 12 weeks
Procedure: The last fasting blood glucose was measured 5 days after the day of PGTT, and all blood samples were collected under ether anesthesia, then the mice were euthanized by cervical dislocation, and samples were collected and partially weighed as shown in Table 3 below.

[10] = tested on: P38 MAPK, NF-κB p65, JNK phosphorylation; test: Inflammation induction signal pathway activity in liver, Western blotting; assay type: in vivo, C57BL/6J mice; conditions: high-fat diet+3% taxifolin vs high-fat diet only, 12 weeks
Text: P38 MAPK phosphorylation, NF-κB p65 phosphorylation, JNK phosphorylation: Western blotting

[11] = tested on: fatty acid oxidation-related genes; test: Liver fatty acid oxidation-related gene expression, RT PCR; assay type: in vivo, C57BL/6J mice; conditions: high-fat diet+3% taxifolin vs high-fat diet only, 12 weeks
[12] = non-patent document 9; cited from earlier work
liver tissue = test: Histological analysis of the liver (HE, Azan, SiriusRed, anti-F4/80); assay type: in vivo, C57BL/6J mice; conditions: 12 weeks
Procedure: Liver samples were partially trimmed for tissue observation, washed, immersed in 4% paraformaldehyde, and fixed at 4° C. overnight. The fixed samples were washed, dehydrated in an ascending ethanol series, and paraffin-embedded. (vii) Histological Analysis of the Liver Observation of morphology and fat accumulation: Hematoxylin Eosin (HE) staining Observation of fibrosis: Azan staining, SiriusRed staining, immunohistochemistry (anti-F4/80 antibody) (viii) Analysis of Brown Adipocytes and UCP1 Target tissue: Brown adipose tissue Target: UCP1 gene Means of analysis: real-time RT PCR analysis

[13] = Rectal temperature measurement; assay type: in vivo, C57BL/6J mice; conditions: normal diet+3% taxifolin group
Procedure: as §2, with “2).” for “2). glucose tolerance: The area under the blood glucose curve (AUC) was calculated from the blood glucose fluctuation curve from fasting blood glucose level to 120 min after ingestion using the trapezoidal formula.”

[14] = tested on: Alzheimer's disease model mouse; conditions: cited from earlier work
UCP1 gene = UCP1 gene expression in brown adipose tissue, real-time RT PCR; assay type: in vivo, C57BL/6J mice; conditions: high-fat diet+3% taxifolin vs high-fat diet only, 12 weeks
Text: (vii) Histological Analysis of the Liver Observation of morphology and fat accumulation: Hematoxylin Eosin (HE) staining Observation of fibrosis: Azan staining, SiriusRed staining, immunohistochemistry (anti-F4/80 antibody) (viii) Analysis of Brown Adipocytes and UCP1 Target tissue: Brown adipose tissue Target: UCP1 gene Means of analysis: real-time RT PCR analysis

lipid peroxidation = test: Blood and liver tissue lipid peroxidation (MDA) assay; assay type: in vivo, C57BL/6J mice; conditions: 12 weeks
Text: Blood and liver tissue lipid peroxidation: Lipid Peroxidation (MDA) Colorimetric Assay Kit (BioVision, Inc.)

[15] = tested on: anti-oxidation enzymes (Mn-SOD, CuZn-SOD, Catalase, GP-x); test: Anti-oxidation enzyme gene expression, RT PCR; assay type: in vivo, C57BL/6J mice; conditions: 12 weeks
Text: Anti-oxidation enzyme (Mn-SOD, CuZn-SOD, Catalase, GPx) gene expression: Real-time Quantitative RT PCR

[16] = high-fat diet+3% taxifolin vs high-fat diet only
[17] = normal diet+3% taxifolin vs normal diet only
[18] = liver tissue, high-fat diet+3% taxifolin vs high-fat diet only

SMILES: O=C1c2c(O)cc(O)cc2O[C@H](c2ccc(O)c(O)c2)[C@H]1O [taxifolin]
- body weight ([1]; high-fat diet+3% taxifolin vs high-fat diet only, 4 weeks): significant difference
- body weight ([1]; normal diet+3% taxifolin group vs all other groups, 8 weeks): significant difference in weight loss
- body weight ([1]; normal diet+3% taxifolin group vs other groups, 12 weeks): no weight gain was observed
- body weight ([1]; normal diet+3% taxifolin group, 6 weeks): significant difference in weight loss
- FAS gene expression [2]: significantly decreased
- Lxrα gene expression [2]: significantly decreased
- Scd1 gene expression [2]: significantly decreased
- Srebp1c gene expression [2]: significantly decreased
- anti-oxidation action [3]: anti-oxidation action
- F4/80 gene expression [4]: significantly decreased
- IL-1β gene expression [4]: significantly decreased
- TNF-α gene expression [4]: significantly decreased
- AMPK phosphorylation (AMPK; [16]): significantly increased
- AMPK phosphorylation (AMPK; [17]): significantly increased
- fasting blood glucose (FIG. 6A) [5, 16]: significantly decreased
- blood glucose area under the curve (AUC) ([5]; high-fat diet+3% taxifolin vs high-fat diet only, IPGTT): significantly decreased
- blood glucose level at 60 min after start of intraperitoneal glucose tolerance test ([5]; normal diet+3% taxifolin group): significantly lower
- fasting blood glucose (FIG. 3A) ([5]; normal diet+3% taxifolin group): significantly lower
- fasting blood glucose (FIG. 6A) [5, 17]: significantly decreased
- blood ALT levels [6]: significantly decreased
- blood insulin concentration [6]: significantly decreased
- blood leptin concentration [6]: significantly decreased
- insulin resistance index (HOMA-R) [6]: significantly decreased
- liver triglyceride concentration [6]: significantly decreased
- blood TNF-α concentration ([6]; P=0.076): tendency to decrease
- blood triglyceride concentration ([6]; P=0.079): decreasing trend
- blood IL-1β concentration ([6]; P=0.0932): tendency to decrease
- ACC phosphorylation (ACC; [16]): significantly increased
- ACC phosphorylation (ACC; [17]): significantly increased
- PAI1 gene expression [7]: significantly decreased
- TGF-β1 gene expression [7]: significantly decreased
- αSMA gene expression [7]: significantly decreased
- Collagen 1 gene expression ([7]; P=0.07): decreasing trend
- F4/80 protein amount [8, 16]: significantly decreased
- αSMA protein amount ([8]; high-fat diet+3% taxifolin vs high-fat diet only, P=0.054): decreasing trend
- F4/80 protein amount [8, 17]: decrease was significant
- TGF-β1 protein amount [8, 17]: significantly decreased
- blood glucose [9]: blood glucose-improving effects
- brown adipose tissue weight (BAT weight) (Tissue weight at autopsy): significantly decreased
- epididymal fat weight (EPI WAT weight) (Tissue weight at autopsy): significantly decreased
- liver weight (Tissue weight at autopsy): significantly decreased
- NF-κB p65 phosphorylation [10]: significantly decreased
- P38 MAPK phosphorylation ([10]; P=0.1045): decreasing trend
- c-Jun amino-terminal kinase (JNK) phosphorylation ([10]; P=0.1701): decreasing trend
- Cd36 gene expression [11]: significantly decreased
- safety for intake [12]: safe for intake
- hepatic crown-like structures (hCLS), anti-F4/80 immunohistochemical staining (liver tissue; high-fat diet+3% taxifolin group vs high-fat diet-only group): hardly observed
- fat accumulation in liver, HE staining (liver tissue; [16]): markedly reduced
- amount of collagen stained blue, Azan staining (liver tissue; [18]): reduced
- amount of collagen stained red, Sirius Red staining (liver tissue; [18]): decreased
- rectal temperature ([13]; 8 weeks): significantly higher
- rectal temperature ([13]; 12 weeks): trend was also observed
- amyloid P coagulation [14]: suppression of amyloid P coagulation
- brain blood flow [14]: improvement of brain blood flow
- spatial recognition function in the water maze test [14]: improvement of spatial recognition function
- UCP1 gene expression (UCP1 gene): significantly increased
- concentration of MDA in the liver (lipid peroxidation; [16]): significantly decreased
- concentration of malondialdehyde (MDA) in blood (lipid peroxidation; [16]): significantly decreased
- concentration of MDA in the liver (lipid peroxidation; [17]): significantly decreased
- Catalase gene expression [15, 16]: significantly decreased
- CuZn-SOD gene expression [15, 16]: significantly decreased
- GP-x gene expression [15, 16]: significantly decreased
- Mn-SOD gene expression [15, 16]: significantly decreased
- Mn-SOD gene expression [15, 17]: significantly decreased
